Data taken from patent publication US7517998B2, “Non nucleoside reverse transcriptase inhibitors” (priority 2004, dated 2009).

Molecular target: T1, K103NNY181C mutant reverse transcriptase (Human immunodeficiency virus type 1 group M subtype B, UniProt P04585, K690N/Y768C)
T1 construct: mutations that occur in the reverse transcriptase segment of the pol gene
Test: Reverse transcriptase enzymatic assay (PicoGreen), K103N/Y181C mutant RT
Type: biochemical, HIV-1
Settings: enzymatic assay of Example 24
Outline: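 HIV-1 RT (2.5 nM final) pre-incubated 15 min at room temperature with inhibitor, then reacted 50 min at 37 °C with poly rC 45 nM, dG15 4.5 nM, dGTP 3.6 μM in Tris/HCl pH 7.8, 1% DMSO. Final inhibitor 10 μM to 0.508 nM; EDTA-quenched, PicoGreen fluorescence read at 485/520 nm.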

[1] = IC50 mut, mutant reverse transcriptase
[2] = IC50 mut (nM), mutant (K103N/Y181C) reverse transcriptase

CC(C)(C)c1ccc(-n2nnnc2SCC(=O)Nc2ccc(C(=O)Nc3ccc(CCC(=O)O)cc3)cc2Cl)c(Cl)c1 [Compound 6031]
IC50 [1]: 29.5 nM

Cc1cc(NC(=O)c2ccc(NC(=O)CSc3nnnn3-c3ccc(C(C)(C)C)cc3Cl)c(Cl)c2)ccc1/C=C/C(=O)O [Compound 6032]
IC50 [1]: 20.5 nM

CC(C)(NC(=O)c1ccc(NC(=O)CSc2nnnn2-c2ccc(C3CC3)cc2Cl)c(Cl)c1)C(=O)O [Compound 6033]
IC50 [1]: 298 nM

O=C(CSc1nnnn1-c1ccc(C2CC2)cc1Cl)Nc1ccc(C(=O)NCc2cc[n+]([O-])cc2)cc1Cl [Compound 6034]
IC50 [1]: 44.5 nM

O=C(CSc1nnnn1-c1ccc(C2CC2)cc1Cl)Nc1ccc(C(=O)NCCc2cc[n+]([O-])cc2)cc1Cl [Compound 6035]
IC50 [1]: 39 nM

CS(=O)(=O)NC(=O)c1ccc(NC(=O)CSc2nnnn2-c2ccc(C3CC3)cc2Cl)c(Cl)c1 [Compound 6036]
IC50 [1]: 146 nM

O=C(CSc1nnnn1-c1ccc(C2CC2)cc1Cl)Nc1ccc(C(=O)NS(=O)(=O)c2ccccc2)cc1Cl [Compound 6037]
IC50 [1]: 111 nM

O=C(CSc1nnnn1-c1ccc(C2CC2)cc1Cl)Nc1ccc(C(=O)NCc2cccc[n+]2[O-])cc1Cl [Compound 6038]
IC50 [1]: 64.5 nM

O=C(CSc1nnnn1-c1ccc(C2CC2)cc1Cl)Nc1ccc(C(=O)NCc2ccc[n+]([O-])c2)cc1Cl [Compound 6039]
IC50 [1]: 104 nM

CC(C)(C)c1ccc(-n2nnnc2SCC(=O)Nc2ccc(NC(=O)Cc3ccccc3)cc2Cl)c(Cl)c1 [Compound 7001]
IC50 [2]: 116 nM

CC(C)(C)c1ccc(-n2nnnc2SCC(=O)Nc2ccc(NC(=O)Nc3ccccc3)cc2Cl)c(Cl)c1 [Compound 7002]
IC50 [2]: 187 nM

CC(C)(C)c1ccc(-n2nnnc2SCC(=O)Nc2ccc(NS(=O)(=O)c3ccccc3)cc2Cl)c(Cl)c1 [Compound 7003]
IC50 [2]: 607 nM

CC(C)(C)c1ccc(-n2nnnc2SCC(=O)Nc2ccc(NS(=O)(=O)Cc3ccccc3)cc2Cl)c(Cl)c1 [Compound 7004]
IC50 [2]: 272 nM

CC(C)(C)c1ccc(-n2nnnc2SCC(=O)Nc2ccc(NC(=O)c3ccccc3)cc2Cl)c(Cl)c1 [Compound 7005]
IC50 [2]: 106 nM

CCOC(=O)c1ccc(NC(=O)Nc2ccc(NC(=O)CSc3nnnn3-c3ccc(C(C)(C)C)cc3Cl)c(Cl)c2)cc1 [Compound 7006]
IC50 [2]: 74 nM

CC(C)(C)c1ccc(-n2nnnc2SCC(=O)Nc2ccc(NS(=O)(=O)c3cccs3)cc2Cl)c(Cl)c1 [Compound 7007]
IC50 [2]: 331 nM

CC(C)(C)c1ccc(-n2nnnc2SCC(=O)Nc2ccc(NC(=O)NCc3ccccc3)cc2Cl)c(Cl)c1 [Compound 7008]
IC50 [2]: 428 nM

CC(C)(C)c1ccc(-n2nnnc2SCC(=O)Nc2ccc(NC(=O)Nc3ccc(C(=O)O)cc3)cc2Cl)c(Cl)c1 [Compound 7009]
IC50 [2]: 43 nM

CC(C)C(=O)Nc1ccc(NC(=O)CSc2nnnn2-c2ccc(C(C)(C)C)cc2Cl)c(Cl)c1 [Compound 7010]
IC50 [2]: 83 nM

CC(C)(C)c1ccc(-n2nnnc2SCC(=O)Nc2ccc(NC(=O)c3ccc(O)cc3)cc2Cl)c(Cl)c1 [Compound 7011]
IC50 [2]: 181 nM

CC(C)(C)c1ccc(-n2nnnc2SCC(=O)Nc2ccc(NC(=O)c3cccc(O)c3)cc2Cl)c(Cl)c1 [Compound 7012]
IC50 [2]: 128 nM

CC(C)(C)c1ccc(-n2nnnc2SCC(=O)Nc2ccc(NC(=O)c3ccccc3Cl)cc2Cl)c(Cl)c1 [Compound 7013]
IC50 [2]: 121 nM

CC(C)(C)c1ccc(-n2nnnc2SCC(=O)Nc2ccc(NC(=O)c3ccccc3O)cc2Cl)c(Cl)c1 [Compound 7014]
IC50 [2]: 415 nM

COc1ccc(CC(=O)Nc2ccc(NC(=O)CSc3nnnn3-c3ccc(C(C)(C)C)cc3Cl)c(Cl)c2)cc1 [Compound 7015]
IC50 [2]: 189 nM

COc1cccc(CC(=O)Nc2ccc(NC(=O)CSc3nnnn3-c3ccc(C(C)(C)C)cc3Cl)c(Cl)c2)c1 [Compound 7016]
IC50 [2]: 145 nM

CC(C)(C)c1ccc(-n2nnnc2SCC(=O)Nc2ccc(NC(=O)Cc3cccc([N+](=O)[O-])c3)cc2Cl)c(Cl)c1 [Compound 7017]
IC50 [2]: 170 nM

COc1ccccc1CC(=O)Nc1ccc(NC(=O)CSc2nnnn2-c2ccc(C(C)(C)C)cc2Cl)c(Cl)c1 [Compound 7018]
IC50 [2]: 100 nM
